Source: patent US8809347B2, “Bicyclic aryl and bicyclic heteroaryl substituted triazoles useful as AXL inhibitors” (Rigel Pharmaceuticals, Inc., priority 2006, dated 2014)

Target: T1, Axl (Homo sapiens, UniProt P30530)
T1 construct: Cells: Hela cells; endogenous in cells; host or cells: HeLa cells
T1 sequence (P30530 26-894): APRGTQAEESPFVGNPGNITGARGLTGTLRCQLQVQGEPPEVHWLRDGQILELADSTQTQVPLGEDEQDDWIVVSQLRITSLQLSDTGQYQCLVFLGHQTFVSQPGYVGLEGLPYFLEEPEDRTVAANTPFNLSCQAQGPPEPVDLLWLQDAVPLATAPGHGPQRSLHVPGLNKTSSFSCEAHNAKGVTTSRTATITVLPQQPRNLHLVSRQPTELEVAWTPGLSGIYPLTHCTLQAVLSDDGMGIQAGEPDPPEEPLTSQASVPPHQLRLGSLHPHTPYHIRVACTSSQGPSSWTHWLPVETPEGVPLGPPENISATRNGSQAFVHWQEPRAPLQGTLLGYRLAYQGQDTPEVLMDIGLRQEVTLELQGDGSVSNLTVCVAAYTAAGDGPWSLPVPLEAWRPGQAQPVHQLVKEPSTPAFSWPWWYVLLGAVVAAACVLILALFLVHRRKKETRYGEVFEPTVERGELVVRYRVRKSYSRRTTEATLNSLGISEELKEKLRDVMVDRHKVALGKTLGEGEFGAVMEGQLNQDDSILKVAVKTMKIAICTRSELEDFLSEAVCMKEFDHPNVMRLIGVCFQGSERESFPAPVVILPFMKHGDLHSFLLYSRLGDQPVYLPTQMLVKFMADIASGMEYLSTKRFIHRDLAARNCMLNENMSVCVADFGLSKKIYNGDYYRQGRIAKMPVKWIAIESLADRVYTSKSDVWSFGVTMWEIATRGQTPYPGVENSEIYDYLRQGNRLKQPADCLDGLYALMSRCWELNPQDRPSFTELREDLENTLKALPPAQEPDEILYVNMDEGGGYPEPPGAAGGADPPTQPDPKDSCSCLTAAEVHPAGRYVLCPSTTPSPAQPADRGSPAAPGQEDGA
Assay: Phospho-Akt in-cell Western assay (inhibition of Axl activity)
Type: cell-based
Details: Hela cells; 1 hr pre-treatment; stimulation by Axl-antibody cross-linking; phospho-Akt chemiluminescence normalized to relative cell number
Protocol: The compounds of the invention were tested in the following assay for their ability to inhibit Axl activity.
Phospho-Akt in-Cell Western Assay
• Cell culture plate: 96 well assay plate (Corning 3610), white, clear bottom, tissue-culture treated. • Cells: Hela cells. • Starvation medium: For Axl stimulation: 0.5% FCS (fetal calf serum) in DMEM, plus Axl/Fc (extracellular domain of AXL fused to immunoglobulin Fc region) (R&D, 154-AL) 500 ng/mL. • For EGF (epidermal growth factor) stimulation: 0.5% FCS in DMEM (Dulbecco's modified Eagles medium). • Poly-L-Lysine 0.01% solution (the working solution): […], dilute In PBS (phosphate buffered saline). • Axl antibody cross-linking: • 1st: Mouse anti-Axl (R&D, MAB154). • 2nd: Biotin-SP-conjugated AffiniPure goat anti-mouse IgG (H+ L) (Jackson ImmunoResearch #115-065-003). • Fixing buffer: 4% formaldehyde in PBS. • Wash buffer: 0.1% TritonX-100 in PBS. • Quenching buffer: 3% H2O2, 0.1% Azide in wash buffer, Azide and hydrogen peroxide (H2O2) are added fresh. • Blocking buffer: 5% BSA in TBST (tris buffered saline plus 0.1% Tween 20). • Primary antibody: Rabbit anti-human Phospho-Akt antibody (Cell Signaling 9271): 1×250 diluted in blocking buffer. • Secondary antibody: HRP (horse radish peroxidase)-conjugated Goat anti-Rabbit secondary, stock solution: Jackson ImmunoResearch (Goat anti-Rabbit HRP, #111-035-144) 1:1 diluted in glycerol, store at −20° C. The working solution: 1×2000 dilution of stock in blocking buffer. • Chemiluminescent working solution (Pierce, 37030): SuperSignal ELISA (enzyme linked immunosorbant assay) Pico Chemiluminescent substrate. • Crystal Violet solution: Stock: 2.5% Crystal violet in methanol, filtered and kept at ambient temperature. The working solution: dilute the stock 1:20 with PBS immediately before use. • 10% SDS: working solution: 5% SDS (sodium dodecylsulfate), diluted in PBS Methods: Day 1:
A 96 well TC (tissue culture treated) plate was coated with 10 μg/mL poly-L-Lysine at 37° C. for 30 min, washed twice with PBS, and air-dried for 5 minutes before cells were added. Hela cells were seeded at 10,000 cells/well and the cells were starved in 100 μL starvation medium containing Axl/Fc for 24 hrs.
The cells were pre-treated with test compounds by adding 100 μL of 2× test compound to the starvation medium on the cells. The cells were incubated at 37° C. for 1 hr before stimulation.
The cells were stimulated by Axl-antibody cross-linking as follows: A 5× 1st/2nd Axl antibody mixture was made (37.5 μg/mL 1st/100 μg/mL 2nd) in starvation medium and nutated at 4° C. with thorough mixing for 1-2 hours for clustering. The resulting mix was warmed to 37° C. 50 μL of 5× Axl 1st/2nd of antibody cluster was added to the cells and the cells were incubated at 37° C. for 5 min.
After 5 minutes stimulation, the plate was flicked to remove medium and the plate was tapped onto paper towels. Formaldehyde (4.0% in PBS, 100 μL) was added to fix the cells and the cells were incubated at ambient temperature for 20 min without shaking.
The cells were washed with a plate washer buffer to remove the formaldehyde solution. The plate was flicked to removed excess wash buffer and tapped onto paper towels. Quenching buffer (100 μL) was added to each well and the cells were incubated at ambient temperature for 20 minutes without shaking.
The cells were washed with a plate washer buffer to remove the quenching buffer. Blocking buffer (100 μL) was added and the cells were incubated at ambient temperature for at least an hour with gentle shaking.
The cells were washed with a plate washer buffer and diluted primary antibody (50 μL) was added to each well (blocking buffer was added to the negative control wells instead). The plates were incubated overnight at 4° C. with gentle shaking.
The wash buffer was removed, diluted secondary antibody (100 μL) was added, and the cells were incubated at ambient temperature for 1 hour with gentle shaking. […]

Structure (SMILES) | IC50 [nM]
Cc1csc2c(-n3nc(Nc4ccc5c(c4)CCCN(C4CCCC4)CC5)nc3N)nc(Cl)nc12 [Compound 26, 1-(2-chloro-7-methylthieno[3,2-d]pyrimidin-4-yl)-N^3-(3-cyclopentyl-1,2,3,4,5,6-hexahydrobenzo[d]azocin-8-yl)-1H-1,2,4-triazole-3,5-diamine] | < 1000
Nc1nc(Nc2ccc(OCCN3CCCC3)cc2)nn1-c1cc2c(nn1)CCCCCC2 [Compound 18, 1-(5,6,7,8,9,10-hexahydrocycloocta[c]pyridazin-3-yl)-N^3-(4-(2-(pyrrolidin-1-yl)ethoxy)phenyl)-1H-1,2,4-triazole-3,5-diamine] | < 1000
Nc1nc(Nc2ccc(N3CCC(N4CCCC4)CC3)c(F)c2)nn1-c1ncc2c(n1)CCCCCC2 [Compound 10, N^3-(3-fluoro-4-(4-(pyrrolidin-1-yl)piperidin-1-yl)phenyl)-1-(5,6,7,8,9,10-hexahydrocycloocta[d]pyrimidin-2-yl)-1H-1,2,4-triazole-3,5-diamine] | < 1000
Nc1nc(Nc2ccc(OCCN3CCCC3)cc2)nn1-c1ncnc2c1CCCCCC2 [Compound 20, 1-(5,6,7,8,9,10-hexahydrocycloocta[d]pyrimidin-4-yl)-N^3-(4-(2-(pyrrolidin-1-yl)ethoxy)phenyl)-1H-1,2,4-triazole-3,5-diamine] | < 1000
CN1CCN(Cc2ccc(Nc3nc(N)n(-c4ncc5c(n4)CCCCCC5)n3)cc2)CC1 [Compound 9, 1-(5,6,7,8,9,10-hexahydrocycloocta[d]pyrimidin-2-yl)-N^3-(4-((4-methylpiperazin-1-yl)methyl)phenyl)-1H-1,2,4-triazole-3,5-diamine] | 1000 to 10000
CN(C)[C@@H]1CCN(c2ccc(Nc3nc(N)n(-c4ncc5c(n4)CCCCCC5)n3)cc2)C1 [Compound 6, (R)—N^3-(4-(3-(dimethylamino)pyrrolidin-1-yl)phenyl)-1-(5,6,7,8,9,10-hexahydrocycloocta[d]pyrimidin-2-yl)-1H-1,2,4-triazole-3,5-diamine] | 1000 to 10000
CCOC(=O)N1CCN(c2ccc(Nc3nc(N)n(-c4ncc5c(n4)CCCCCC5)n3)cc2F)CC1 [Compound 14, ethyl 4-(4-(5-amino-1-(5,6,7,8,9,10-hexahydrocycloocta[d]pyrimidin-2-yl)-1H-1,2,4-triazol-3-ylamino)-2-fluorophenyl)piperazine-1-carboxylate] | 1000 to 10000
CN1CCN(c2ccc(Nc3nc(N)n(-c4ncnc5c4CCCCCC5)n3)cc2)CC1 [Compound 21, 1-(5,6,7,8,9,10-hexahydrocycloocta[d]pyrimidin-4-yl)-N^3-(4-(4-methylpiperazin-1-yl)phenyl)-1H-1,2,4-triazole-3,5-diamine] | < 1000

Now from value to molecule:

IC50 [nM] | Structure (SMILES)
< 1000 | COc1cc2ncnc(-n3nc(Nc4ccc5c(c4)CCCN(C4CC6CCC4C6)CC5)nc3N)c2cc1OC (stereo not drawn) [Compound 39, N^3-(3-(bicyclo[2.2.1]heptan-2-yl)-1,2,3,4,5,6-hexahydrobenzo[d]azocin-8-yl)-1-(6,7-dimethoxyquinazolin-4-yl)-1H-1,2,4-triazole-3,5-diamine]
1000 to 10000 | Nc1nc(Nc2ccc(N3CCC(N4CCCC4)CC3)c(F)c2)nn1-c1cc(-c2ccccc2)c2c(n1)CCCCCC2 [Compound 45, N^3-(3-fluoro-4-(4-(pyrrolidin-1-yl)piperidin-1-yl)phenyl)-1-(4-phenyl-5,6,7,8,9,10-hexahydrocycloocta[b]-pyridin-2-yl)-1H-1,2,4-triazole-3,5-diamine]
1000 to 10000 | Nc1nc(Nc2ccc(OCCN3CCCC3)cc2)nn1-c1cc(-c2ccccc2)c2c(n1)CCCCCC2 [Compound 47, N^3-(4-(2-(pyrrolidin-1-yl)ethoxy)phenyl)-1-(4-phenyl-5,6,7,8,9,10-hexahydrocycloocta[b]-pyridin-2-yl)-1H-1,2,4-triazole-3,5-diamine]
1000 to 10000 | CN1CCN(c2ccc(Nc3nc(N)n(-c4cc(-c5ccccc5)c5c(n4)CCCCCC5)n3)cc2)CC1 [Compound 46, N^3-(4-(4-methylpiperazin-1-yl)phenyl)-1-(4-phenyl-5,6,7,8,9,10-Hexahydrocycloocta[b]-pyridin-2-yl)-1H-1,2,4-triazole-3,5-diamine]
< 1000 | Nc1nc(Nc2ccc3c(c2)CCN(C2CCCC2)CCC3)nn1-c1ccc(C(F)(F)F)cn1 [Compound 30, N^3-(3-cyclopentyl-1,2,3,4,5,6-hexahydrobenzo[d]azocin-9-yl)-1-(5-(trifluoromethyl)pyridin-2-yl)-1H-1,2,4-triazole-3,5-diamine]
< 1000 | Cc1csc2c(-n3nc(Nc4ccc5c(c4)C(=O)NCCCC5)nc3N)nc(Cl)nc12 [Compound 48, N^3-(1-oxo-1,2,3,4,5,6-hexahydrobenzo[c]azocin-9-yl)-1-(2-chloro-7-methylthieno[3,2-d]pyrimidin-4-yl)-1H-1,2,4-triazole-3,5-diamine]
< 1000 | COc1cc2ncnc(-n3nc(Nc4ccc5c(c4)C(=O)NCCCC5)nc3N)c2cc1OC [Compound 50, N^3-(1-oxo-1,2,3,4,5,6-hexahydrobenzo[c]azocin-9-yl)-1-(6,7-dimethoxyquinazolin-4-yl)-1H-1,2,4-triazole-3,5-diamine]
